Assays:
AMPK beta 1 = biological target: T1, AMPK beta 1 (Homo sapiens, UniProt Q13131+Q9Y478); assay: in-cell-ELISA for phospho-ACC, Activity beta 1; type: cell-based; conditions: 2 h, serum free DMEM, percentage activation over vehicle control, cell line not given (HepG2 or C2C12 myotubes)
T1 construct: in-cell-ELISA for phospho-ACC (Acetyl-CoA carboxylase 1) in HepG2 cells (liver); endogenous in cells; host or cells: HepG2
Description: (§1) Activation of AMPK by various compounds were measured using in-cell-ELISA for phospho-ACC (Acetyl-CoA carboxylase 1) in HepG2 cells (liver) and fully differentiated myotubes (C2C12 cells) grown in 96 well plate. Cells were treated with 1 μM of the molecule for 2 h in serum free DMEM media. After methanol fixation, cells were blocked with BSA followed by addition of anti-phospho ACC antibody (Cell Signaling) and HRP conjugated secondary antibody. Absorbance values taken at 450 nm and were normalized with total DNA (Hoechest stain). Results were expressed as percentage activation over vehicle control.

AMPK beta 2 = biological target: T2, AMPK beta 2 (Mus musculus, UniProt Q6PAM0+Q8BRK8); assay: in-cell-ELISA for phospho-ACC, Activity beta 2; type: cell-based; conditions: 2 h, serum free DMEM, percentage activation over vehicle control, cell line not given (HepG2 or C2C12 myotubes)
T2 construct: fully differentiated myotubes (C2C12 cells) grown in 96 well plate; endogenous in cells; host or cells: C2C12 myotubes
T2 sequence (Q6PAM0 whole entry): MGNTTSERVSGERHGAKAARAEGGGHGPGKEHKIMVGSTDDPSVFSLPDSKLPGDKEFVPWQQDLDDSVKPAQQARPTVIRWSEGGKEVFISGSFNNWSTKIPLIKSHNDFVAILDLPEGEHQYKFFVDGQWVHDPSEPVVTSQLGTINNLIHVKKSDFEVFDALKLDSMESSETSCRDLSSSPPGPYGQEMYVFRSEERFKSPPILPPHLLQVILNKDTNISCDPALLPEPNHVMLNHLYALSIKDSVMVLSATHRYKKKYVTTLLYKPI
T2 sequence (Q8BRK8 whole entry): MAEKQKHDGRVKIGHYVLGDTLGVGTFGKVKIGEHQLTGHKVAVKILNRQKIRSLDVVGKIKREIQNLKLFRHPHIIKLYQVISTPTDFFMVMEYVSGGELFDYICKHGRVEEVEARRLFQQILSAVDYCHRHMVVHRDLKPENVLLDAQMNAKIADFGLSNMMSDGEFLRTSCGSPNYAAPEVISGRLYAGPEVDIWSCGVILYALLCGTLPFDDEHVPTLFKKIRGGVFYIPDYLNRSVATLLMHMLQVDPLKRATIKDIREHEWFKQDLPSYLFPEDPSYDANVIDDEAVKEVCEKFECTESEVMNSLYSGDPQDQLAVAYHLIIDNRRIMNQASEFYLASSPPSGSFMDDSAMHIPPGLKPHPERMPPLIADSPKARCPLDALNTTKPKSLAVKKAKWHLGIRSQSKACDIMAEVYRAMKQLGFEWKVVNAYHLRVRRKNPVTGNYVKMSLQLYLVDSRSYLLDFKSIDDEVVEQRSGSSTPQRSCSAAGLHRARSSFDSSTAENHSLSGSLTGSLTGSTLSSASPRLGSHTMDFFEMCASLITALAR
T2 sequence (O54950 whole entry partner): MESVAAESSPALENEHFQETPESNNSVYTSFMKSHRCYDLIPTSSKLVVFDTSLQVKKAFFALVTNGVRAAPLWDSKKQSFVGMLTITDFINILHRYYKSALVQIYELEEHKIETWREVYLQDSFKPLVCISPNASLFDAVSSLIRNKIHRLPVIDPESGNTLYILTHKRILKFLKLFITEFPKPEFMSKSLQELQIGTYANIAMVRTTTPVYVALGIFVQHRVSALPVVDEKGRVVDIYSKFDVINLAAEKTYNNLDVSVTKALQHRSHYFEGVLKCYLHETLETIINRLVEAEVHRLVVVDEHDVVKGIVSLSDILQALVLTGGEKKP
Description: as §1

[1] = solubility of sodium salt in water; type: physicochemical; conditions: read-out: soluble in water
Description: To a stirred solution of acid (compound 67, 1 mmol) in EtOH (25v) was added 0.5M NaOH solution (1 mmol) drop-wise at 30° C. followed by 10V of water. After 30 minutes, excess of ethanol was removed under reduced pressure at 35 deg C. and repeatedly distilled with ethanol two or three times until free solid obtained. The solid was further washed with n-Hexane to obtain compound 67 Compound 67 is soluble in 1 mg/mL water.
The protocol for synthesizing compound 67 was followed to prepare compound 68. Compound 68 is also soluble in 1 mg/mL water.

T1 sequence (Q9Y478 whole entry): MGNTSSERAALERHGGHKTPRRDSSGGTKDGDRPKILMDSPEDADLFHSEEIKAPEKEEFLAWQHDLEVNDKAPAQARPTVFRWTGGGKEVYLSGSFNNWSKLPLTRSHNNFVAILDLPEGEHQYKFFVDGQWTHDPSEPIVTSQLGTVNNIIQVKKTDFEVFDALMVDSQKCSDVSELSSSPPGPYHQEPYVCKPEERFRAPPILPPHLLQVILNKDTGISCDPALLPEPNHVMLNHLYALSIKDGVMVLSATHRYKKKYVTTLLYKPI
T1 sequence (Q13131 whole entry): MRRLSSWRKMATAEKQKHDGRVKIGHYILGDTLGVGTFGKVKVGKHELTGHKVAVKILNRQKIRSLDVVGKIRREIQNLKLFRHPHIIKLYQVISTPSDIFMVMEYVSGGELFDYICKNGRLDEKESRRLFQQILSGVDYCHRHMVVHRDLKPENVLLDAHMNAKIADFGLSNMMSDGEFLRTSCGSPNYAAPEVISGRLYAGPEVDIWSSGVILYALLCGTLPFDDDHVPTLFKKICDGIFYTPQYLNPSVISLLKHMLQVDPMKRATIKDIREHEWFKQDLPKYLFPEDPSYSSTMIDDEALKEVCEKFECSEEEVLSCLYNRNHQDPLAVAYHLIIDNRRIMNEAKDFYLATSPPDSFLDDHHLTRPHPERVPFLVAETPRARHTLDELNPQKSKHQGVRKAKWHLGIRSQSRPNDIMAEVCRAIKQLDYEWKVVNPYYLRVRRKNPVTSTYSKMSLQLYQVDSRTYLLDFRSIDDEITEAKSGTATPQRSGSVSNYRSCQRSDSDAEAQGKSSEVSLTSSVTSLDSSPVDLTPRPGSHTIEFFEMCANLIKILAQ
T1 sequence (P54619 whole entry partner): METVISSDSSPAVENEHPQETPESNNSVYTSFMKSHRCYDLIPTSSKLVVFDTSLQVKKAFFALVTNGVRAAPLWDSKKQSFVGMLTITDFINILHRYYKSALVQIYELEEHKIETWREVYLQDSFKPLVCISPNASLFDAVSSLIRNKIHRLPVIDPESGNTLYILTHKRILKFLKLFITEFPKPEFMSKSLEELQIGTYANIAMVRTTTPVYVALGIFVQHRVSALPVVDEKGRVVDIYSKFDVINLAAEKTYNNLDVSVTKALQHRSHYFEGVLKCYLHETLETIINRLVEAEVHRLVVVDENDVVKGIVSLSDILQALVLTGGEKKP

| activation at 1 µM (AMPK beta 1) [%] | Activity beta 2 (at 1 uM) (AMPK beta 2) | solubility [1] [µg/mL] | Structure (SMILES) |
| --- | --- | --- | --- |
| > 40 | *** (*** >40) | – | O=C(O)Cc1ccc(C=C2C(=O)Nc3cc(Cl)c(-c4ccc(-c5ccc(-n6cncn6)cc5)cc4)cc32)cc1 [Example 53] |
| > 40 | *** (*** >40) | – | COc1ccc(C=C2C(=O)Nc3cc(Cl)c(-c4ccc(-c5ccc(-n6ccnn6)cc5)cc4)cc32)cc1CC(=O)O [Example 56] |
| > 40 | – | ≥ 1000 | COc1ccc(/C=C2\C(=O)Nc3cc(Cl)c(-c4ccc(-c5ccc(-n6cncn6)cc5)cc4)cc32)cc1CC(=O)[O-].[Na+] [Example 67, sodium {5-[(E/Z)-{6-chloro-2-oxo-5-[4′-(1H-1,2,4-triazol-1-yl)biphenyl-4-yl]-1,2-dihydro-3H-indol-3-ylidene}methyl]-2-methoxyphenyl}acetate] |
| > 40 | – | ≥ 1000 | O=C(O)Cc1ccc(/C=C2\C(=O)Nc3cc(Cl)c(-c4ccc(-c5ccc(-n6cncn6)cc5)cc4)cc32)cc1 [Example 68, sodium {4-[(E/Z)-{6-chloro-2-oxo-5-[4′-(1H-1,2,4-triazol-1-yl)biphenyl-4-yl]-1,2-dihydro-3H-indol-3-ylidene}methyl]phenyl}acetate] |
